pIC50: −log10 of the molar value.
Test system: MDA-MB-231 cells
Assay: Extracellular lactate production inhibition after 4 h, MDA-MB-231
Details: Homo sapiens, MDA-MB-231

**Q.** `CCCCOC(=O)c1ccc(C#Cc2ccccc2NS(=O)(=O)c2ccc(OC)c3cccnc23)cn1` [Compound 168, butyl 5-{2-[2-(5-methoxyquinoline-8-sulfonamido)phenyl]ethynyl}pyridine-2-carboxylate] was tested. Which pIC50 did it give?
**A.** Its pIC50 is 7.00 to 8.00.

**Q.** With `O=C(O)c1ccc(C#Cc2ccccc2NS(=O)(=O)c2ccc3c(c2)Cc2ccccc2-3)cn1` [Compound 92, 5-{2-[2-(9H-fluorene-2-sulfonamido)phenyl]ethynyl}pyridine-2-carboxylic acid] as the molecule, how does the pIC50 read?
**A.** Its pIC50 is 7.00 to 8.00.

**Q.** `COC(=O)c1cc(C)c(C#Cc2ccccc2NS(=O)(=O)c2ccc(OC)c3cccnc23)cn1` [Compound 122, methyl 5-{2-[2-(5-methoxyquinoline-8-sulfonamido)phenyl]ethynyl}-4-methylpyridine-2-carboxylate] was tested. Which pIC50 did it give?
**A.** Its pIC50 is 7.00 to 8.00.

**Q.** With `CNc1ccnc2c(S(=O)(=O)Nc3ccccc3C#Cc3cnc(C(=O)O)cc3OC)cccc12` [Compound 419, 4-Methoxy-5-[2-(4-methylamino-quinoline-8-sulfonylamino)-phenylethynyl]-pyridine-2-carboxylic acid] as the molecule, how does the pIC50 read?
**A.** The pIC50 was 4.00 to 6.00.

**Q.** With `O=C(O)c1ccc(C#Cc2ccccc2NS(=O)(=O)N2CCc3cccnc32)cn1` [Compound 145, 5-{2-[2-({1H,2H,3H-pyrrolo[2,3-b]pyridine-1-sulfonyl}amino)phenyl]-ethynyl}pyridine-2-carboxylic acid] as the molecule, how does the pIC50 read?
**A.** Its pIC50 is 4.00 to 6.00.

**Q.** How did the pIC50 turn out when `COc1cc(C)c(S(=O)(=O)Nc2ccccc2C#Cc2ccc(C(=O)O)nc2)c(C)c1C` [Compound 277, 5-{2-[2-(4-methoxy-2,3,6-trimethyl-benzenesulfonamido)phenyl]ethynyl}-pyridine-2-carboxylic acid] was run?
**A.** The pIC50 was 6.00 to 7.00.

**Q.** With `CCOc1ccc(S(=O)(=O)Nc2ccccc2C#Cc2cnc(C(=O)O)c(CC)c2)c2ncccc12` [Compound 371, 5-[2-(5-Ethoxy-quinoline-8-sulfonylamino)-phenylethynyl]-3-ethyl-pyridine-2-carboxylic acid] as the molecule, how does the pIC50 read?
**A.** Its pIC50 is 8.00 to 9.00.

**Q.** `CCc1ccc(NS(=O)(=O)c2c(C)ccc3cccnc23)c(C#Cc2ccc(C(=O)O)nc2)c1` [Compound 417, 5-{2-[5-ethyl-2-(7-methylquinoline-8-sulfonamido)phenyl]ethynyl}pyridine-2-carboxylic acid] was tested. Which pIC50 did it give?
**A.** The pIC50 was 8.00 to 9.00.

**Q.** How did the pIC50 turn out when `C=C(C)c1cc(C(=O)O)ncc1C#Cc1ccccc1NS(=O)(=O)c1ccc(OC)c2cccnc12` [Compound 207] was run?
**A.** Its pIC50 is 7.00 to 8.00.

**Q.** With `O=C(O)c1ncc(C#Cc2ccccc2NS(=O)(=O)c2cccc3c(Cl)ccnc23)c2ccccc12` [Compound 441, 4-{2-[2-(4-chloroquinoline-8-sulfonamido)phenyl]ethynyl}iso-quinoline-1-carboxylic acid] as the molecule, how does the pIC50 read?
**A.** The pIC50 was 6.00 to 7.00.

**Q.** With `O=C(O)c1ccc(C#Cc2ccccc2NS(=O)(=O)N2CCc3ccccc3C2)cn1` [Compound 113, 5-(2-{2-[(1,2,3,4-tetrahydroisoquinoline-2-sulfonyl)amino]phenyl}ethynyl)pyridine-2-carboxylic acid] as the molecule, how does the pIC50 read?
**A.** The pIC50 was 4.00 to 6.00.

**Q.** With `CNc1cc(C#Cc2ccccc2NS(=O)(=O)c2ccc(OC)c3cccnc23)cnc1C(=O)O` [Compound 212, 5-{2-[2-(5-methoxyquinoline-8-sulfonamido)phenyl]ethynyl}-3-(methylamino)pyridine-2-carboxylic acid] as the molecule, how does the pIC50 read?
**A.** Its pIC50 is 8.00 to 9.00.

**Q.** With `Cc1cc(C(=O)O)ncc1C#Cc1ccccc1NS(=O)(=O)c1ccc2ccccc2c1` [Compound 50, 4-methyl-5-{2-[2-(naphthalene-2-sulfonamido)phenyl]ethynyl}pyridine-2-carboxylic acid] as the molecule, how does the pIC50 read?
**A.** The pIC50 was 4.00 to 6.00.

**Q.** How did the pIC50 turn out when `Cc1ccc2cccnc2c1S(=O)(=O)Nc1ccc(F)cc1C#Cc1ccc(C(=O)O)nc1` [Compound 112, 5-{2-[5-fluoro-2-(7-methylquinoline-8-sulfonamido)phenyl]ethynyl}pyridine-2-carboxylic acid] was run?
**A.** The pIC50 was 7.00 to 8.00.

**Q.** How did the pIC50 turn out when `COc1ccc(S(=O)(=O)Nc2ccccc2C#Cc2ccc(C(=O)O)c(F)c2)c2ccccc12` [Compound 45, 2-fluoro-4-{2-[2-(4-methoxynaphthalene-1-sulfonamido)phenyl]ethynyl}benzoic acid] was run?
**A.** Its pIC50 is 6.00 to 7.00.
